Tests used:
[1] = test system: phosphotyrosine STAT3; experiment: Cytoblot screening for phospho-STAT3 inhibition in v-Src-transformed NIH 3T3 cells; type: cell-based, murine; details: 10 μM, 4 hr
Protocol: Cytoblot Screening for Phospho-STAT3 Inhibition. NIH 3T3 cells stably transfected with v-Src or NIH 3T3 vector control cells (Turkson, J. et al. Mol. Cell Biol., 1999, 19:7519-7528) were plated into sterile, opaque, 96-well tissue culture plates at 25,000 cells/well. After overnight growth at 37° C., the cells were treated for 4 hr in the presence of either vehicle control or 10 μM of NCI Diversity Set compounds (http://dtp.nci.nih.gov/). After treatment, cells were washed in 100 μl cold TBS (10 mM Tris, pH 7.4, 150 mM NaCl), then fixed for one hour at 4° C. with 190 μl per well of cold 3.7% formaldehyde in TBS as described previously (Stockwell, B. R. et al. Chem. Biol., 1999, 6:71-83). Membranes were permeabilized during a five-minute incubation in ice-cold methanol at 4° C. Cells were washed with 180 μl per well 3% milk in TBS then rocked overnight at 4° C. with 50 μl per well of 3% milk in TBS containing 1:1000 dilution of anti-phospho-STAT3 (P-Tyr 705; Cell Signaling Technology, Beverly, Mass.) and 1:2000 dilution of HRP-conjugated goat anti-rabbit IgG (Jackson ImmunoResearch, West Grove, Pa.). Antibodies were aspirated and then plates were washed twice with 180 μl per well TBS. […] Quantification of results was done using GS-700 scanning densitometer (Bio-Rad Laboratories, Hercules, Calif.).

[2] = test system: JAK2; experiment: Western blotting for JAK2 protein levels; type: cell-based, human; details: A549 and MDA-MB-468 cells
Protocol: Western Blotting. Treated cell samples were lysed in 30 mM Hepes, pH 7.5, 10 mM NaCl, 5 mM MgCl2, 25 mM NaF, 1 mM EGTA, 1% Triton-X-100, 10% glycerol, 2 mM sodium orthovanadate, 10 μg/ml aprotinin, 10 μg/ml soybean trypsin inhibitor, 25 μg/ml leupeptin, 2 mM PMSF, and 6.4 mg/ml p-nitrophenylphosphate. Phospho-STAT3, phospho-AKT, phospho-MEK, and phospho-p42/p44 MAPK antibodies were obtained from Cell Signaling Technologies, Cambridge, Mass. Antibodies to STAT3, JAK2, and phospho-INK were purchased from Santa Cruz Biotechnology, Santa Cruz, Calif. Phospho-JAK2 antibody came from Upstate Biotechnology, Lake Placid, N.Y. Membranes were blocked in either 5% milk in PBS, pH 7.4, containing 0.1% Tween-20 (PBS-T) or 1% BSA in TBS, pH 7.5, containing 0.1% Tween-20 (TBS-T). Phospho-specific antibodies (excepting P-MAPK and P-JNK) were incubated in 1% BSA in TBS-T while all other antibodies were diluted in 5% milk in PBS-T for either 2 hr at room temperature or overnight at 4° C. HRP-conjugated secondary antibodies (Jackson ImmunoResearch) were diluted in 5% milk in either PBS-T or TBS-T at 1:1000 dilution for one hour at room temperature. Western blots were visualized using enhanced chemiluminescence as described previously (Blaskovich, M. A. et al. Nat. Biotechnol., 2000, 18:1065-1070).

[3] = test system: MDA-MB-468 tumors; experiment: Antitumor activity, MDA-MB-468 xenograft in nude mice; type: in vivo; details: 1 mg/kg/day i.p.
Text: Antitumor Activity in the Nude Mouse Tumor Xenograft Model. Nude mice and C57 BL-6 black mice (National Cancer Institute, Bethesda, Md.) were maintained in accordance with the Institutional Animal Care and Use Committee (IACUC) procedures and guidelines. v-Src- and oncogenic H-Ras-transformed NIH 3T3, A549, MDA-MB-468 and Calu-1 cells were harvested, resuspended in PBS and injected s.c. into the right and left flank (10×10^6 cells per flank) of 8 week old female nude mice as reported previously (Sun, J. et al. Cancer Res., 1999, 59:4919-4926). Similarly, murine B16-F10 Melanoma cells were injected s.c. into the right and left flank (10^6 cells per flank) of C57 black mice. When tumors reached about 150 mm^3, animals were randomized (five animals per group; two tumors per animal) and dosed i.p. with 0.2 ml once daily. Control animals received DMSO (20%) vehicle whereas treated animals were injected with JSI-124 (1 mg/kg/day) in 20% DMSO in water. The tumor volumes were determined by measuring the length (l) and the width (w) and calculating the volume (V=1w^2/2) as described previously (Sun, J. et al. Cancer Res., 1999, 59:4919-4926). Statistical significance between control and treated animals were evaluated by using Student's t-test. […] Percent surviving mice was determined by monitoring the death of mice until all mice died. […]

[4] = test system: v-Src/NIH 3T3 tumors; experiment: Antitumor activity, v-Src-transformed NIH 3T3 tumors in nude mice; type: in vivo
Text: Antitumor Activity in the Nude Mouse Tumor Xenograft Model. Nude mice and C57 BL-6 black mice (National Cancer Institute, Bethesda, Md.) were maintained in accordance with the Institutional Animal Care and Use Committee (IACUC) procedures and guidelines. v-Src- and oncogenic H-Ras-transformed NIH 3T3, A549, MDA-MB-468 and Calu-1 cells were harvested, resuspended in PBS and injected s.c. into the right and left flank (10×10^6 cells per flank) of 8 week old female nude mice as reported previously (Sun, J. et al. Cancer Res., 1999, 59:4919-4926). Similarly, murine B16-F10 Melanoma cells were injected s.c. into the right and left flank (10^6 cells per flank) of C57 black mice. […] […] The tumor volumes were determined by measuring the length (l) and the width (w) and calculating the volume (V=1w^2/2) as described previously (Sun, J. et al. Cancer Res., 1999, 59:4919-4926). Statistical significance between control and treated animals were evaluated by using Student's t-test. For the mouse survival experiments, C57 BL-6 black mice were implanted s.c. with B16-F10 cells (10^5 to 10^6 cells per flank). […] Percent surviving mice was determined by monitoring the death of mice until all mice died. Two experiments of 12 animals each (6 control and 6 treated with JSI-124) were carried out. For statistical analysis: for each of the two experiments, mice receiving JSI-124 were compared to those receiving vehicle control with respect to survival using the permutation log rank test as implemented in the statistical software package, ProcStatXact (p-values are two sided and exact).

## CC(C)(O)/C=C/C(=O)[C@](C)(O)[C@H]1[C@H](O)C[C@@]2(C)[C@@H]3CC=C4[C@@H](C=C(O)C(=O)C4(C)C)[C@]3(C)C(=O)C[C@]12C [JSI-124, cucurbitacin I]
[1]
  phosphotyrosine STAT3 levels (cytoblot): reduced phosphotyrosine STAT3 to barely detectable levels
[2]
  JAK2 protein levels: no effect on the protein levels of STAT3 and JAK2
[3]
  inhibition of MDA-MB-468 tumor growth: 86%
[4]; 1 mg/Kg/day intraperitoneally
  inhibition of growth of v-src transformed NIH 3T3 tumors (in words): inhibits tumor growth
[4]; 1 mg/kg/day i.p.
  inhibition of growth of v-Src/NIH 3T3 tumors: 64%

— US8691799B2, “Materials and methods for treatment of cancer and identification of anti-cancer compounds” (priority 2001, dated 2014)
